The text below walks through data of patent US6960692B2, “Diaryl sulfide derivative, addition salt thereof, and immunosuppressant” (Kyorin Pharmaceutical Co., Ltd., priority 2001, dated 2005).

One data set has as its system male BALB/c mice. Nature of the data set: Ability of test compounds to suppress delayed-type hypersensitivity in mice (DNFB, ear thickness). It counts as in vivo. The settings on record: dose 1 mg/kg orally 30 minutes before DNFB challenge; ear thickness increase 24 hours after the challenge. The protocol:
<Experiment 2> Ability of Test Compounds to Suppress Delayed-Type Hypersensitivity in Mice. […] The sensitization was done for 2 consecutive days (day 0 and day 1). On day 5, the mice were challenged with the antigen to induce delayed-type hypersensitive responses: First, the initial thickness of each ear was measured by the dial thickness gauge G (0.01-10 mm, OZAKI MFG Co., Ltd.) and a test compound was administered. 30 minutes after the administration, 10 μL of a 0.2% (v/v) DNFB solution was applied to the inner and outer surfaces of the right ear of each animal for antigen challenge. The left ear of each animal was challenged with the solvent alone. 24 hours after the challenge, the increase in the ear thickness was measured for each ear and the difference in thickness between the right and the left ears was determined for each individual. The test compound was dissolved, or suspended, in an ultra pure water and was orally administered at a dose of 0.1 mL/10 g of body weight. A control group was administered ultra pure water alone.

The subject of another data set is male C3H/HeN mice. Nature of the data set: Ability of test compounds to suppress graft host vs rejection in mice (popliteal lymph node weight). Type of data set: in vivo. The settings on record: right popliteal lymph node weight 4 days after injection of BALB/c stimulation cells. From the text:
Ability of Test Compounds to Suppress Graft Host vs Rejection in Mice […] Spleens were collected from 9 to 11 week old male BALB/c mice (CLEA JAPAN Inc., CHARLES RIVER JAPAN Inc., or JAPAN SLC Inc.). The spleens were placed in a phosphate-buffered saline (PBS(-), NISSUI PHARMACEUTICAL Co., Ltd.) or in an RPMI-1640 medium (GIBCO […] Inc., or IWAKI GLASS Co., Ltd.) and were either passed through a stainless steel mesh, or gently pressed between two slide glasses and then passed through a cell strainer (70 μm, Falcon), to form a cell suspension. The suspension was then centrifuged and the supernatant was discarded. An ammonium chloride-Tris isotonic buffer was added to the suspension to lyse erythrocytes. The cells were then centrifuged and washed three times in PBS (-) or RPMI-1640 medium and were resuspended in an RPMI-1640 medium. […] The cells were again centrifuged and washed in PBS (-) or RPMI-1640 medium and were resuspended in an RPMI-1640 medium so that the medium would contain 2.5×10^8 cells/mL. This suspension served as a “stimulation cell suspension.” Using a 27G needle along with a microsyringe (Hamilton), 20 μL (5×10^6 cells/mouse) of the stimulation cell suspension was subcutaneously injected into the right hind footpad of 7 to 9 week old male C3H/HeN mice (CLEA JAPAN Inc., CHARLES RIVER JAPAN Inc., or JAPAN SLC Inc.). […]

The term melting point denotes the temperature, or range, at which the solid turns liquid. For `Cl.NC(CO)(CO)CCCc1ccc(Sc2cccc(OCc3ccccc3)c2)cc1Cl` [Example 36, 2-amino-2-[4-(3-benzyloxyphenylthio)-2-chlorophenyl]propyl-1,3-propanediol hydrochloride], the melting point was in the range of 132 to 133 °C. In the data set on male BALB/c mice, the “Inhibition (%)” value is 86%. For the same molecule, the “Inhibition (%)” value in the data set with male C3H/HeN mice (dose 0.03 mg/kg intraperitoneally once a day for four consecutive days) stood at 85%.
Consider `Cl.NC(CO)(CO)CCc1ccc(Sc2cccc(OCc3ccccc3)c2)cc1Cl` [Example 46, 2-amino-2-[4-(3-benzyloxyphenylthio)-2-chlorophenyl]ethyl-1,3-propanediol Hydrochloride], for which, in the data set with male C3H/HeN mice (dose 0.3 mg/kg intraperitoneally once a day for four consecutive days), the “Inhibition (%)” value came out at 80%.
